# Test results reported in US4410525A, “Alkoxy pyrazole derivatives and compositions” (Establissements Nativelle S.A., priority 1981, dated 1983).
# Like-named read-outs stand apart in the source and are kept apart here.
# Key:
# [1] = Acute toxicity (lethal dose 50) in the mouse; conditions: in vivo
# Text: The acute toxicity of the deriatives of the invention were studied by oral administration (P.O) to the mouse (10 animals, 5 males and 5 females per dose) and calculation of the lethal dose 50 (LD 50) in accordance with the method of Litchfield and Wilcoxon (J. Pharmacol., 96, 99-113 (1949)). Table 1 gives the LD 50 values of the derivatives of the invention.
# In certain cases, the LD 50 was also studied after intraperitoneal injection (I.P.) of the derivatives.
# [2] = test system: isolated guinea pig auricle; assay: Maximum stimulation frequency test on isolated guinea pig auricle; conditions: Cavia porcellus; 10 mg/l; read-out: Δ% MFS (decrease of the maximum frequency followed)
# Description: The maximum frequency test carried out studied the maximum stimulation frequency which can cause contraction of an isolated guinea pig auricle placed in a solution containing a derivative of the invention. The measurement was carried out before (control period) and then after introduction of the derivative into the solution.
# [3] = test system: anesthetized dog; assay: Hemodynamic effects on the anesthetized dog; type: in vivo; conditions: for (dp/dt)l/p, percentage of variation / Cardiac flow, percentage of variation / Cardiac frequency, percentage of variation / Contraction force of the myocardium, percentage of variation / Systolic arterial pressure, percentage of variation / Systolic volume, percentage of variation: Example 2 series, vs pretreatment
# Description: Cardiovascular tolerance was studied on the isolated guinea pig auricle, on the anesthetized rat and on the anesthetized dog.
# On the anesthetized dog, the results obtained with respect to hemodynamic tolerance are summarized in Table 2 below which indicates the percentages of variation of the hemodynamic parameters in relation to the pre-treatment control period for the derivatives of Examples 2 and 4.
# The parameters were recorded by means of:
# Catheters connected to pressure sensors (arterial pressure, left ventricular pressure and its first derivative dp/dt);
# Electromagnetic flowmeter on the aorta (aortic flow);
# Strain gauge placed on the left ventricular myocardium (force of myocardiac contraction).
# The derivatives were injected intraveneously, one dose approximately every 30 minutes and their effects were measured 20 minutes after the completion of the injection (length of the injection 2 minutes).
# [4] = test system: ventricular arrhythmias induced by aconitine in the anesthetized rat; assay: Antiarrhythmic test with aconitine on the rat; type: in vivo
# Description: The derivatives of the invention were used in the test with aconitine on the rat. For this test, the anesthetized rat was intoxicated by an intravenous perfusion of aconitine (solution of aconitine nitrate: 15 mg/l; speed of perfusion: 0.4 ml/min) while its electrocardiogram was recorded permanently. During perfusion at constant speed, the time necessary for the appearance of ventricular arrhythmias, successively ventricular extrasystoles (ESV), ventricular tachycardium (TV) and ventricular fibrillation (FV) was measured.
# The animals were divided into a control group (untreated) and treated group (different doses). The results are expressed as a percentage of prolonging the time of the appearance of the arrhythmias in the treated groups in relation to the control group. This prolongation of arrhythmia appearance time therefore corresponds to myocardiac protection against the arrhythmic effects of aconitine.
# [5] = test system: rabbit cornea; assay: Local contact anesthesia on the rabbit cornea; type: in vivo; conditions: solution at 0.25% or 1% by weight, eyewash instillation
# Text: For example, the derivatives described in Examples 2, 3, 4, 6, 7 and 9 are local anesthetics (100% anesthesia) in a solution at 0.25% or 1% by weight.
# [6] = test system: anoxic ventricular fibrillation in mice; assay: Cardiac antifibrillatory activity on the mouse (Lawson test); type: in vivo; conditions: ip, intraperitoneal, 10 minutes before chloroform, read-out: ED 50 (protects half the mice against anoxic ventricular fibrillation)
# Description: Cardiac antifibrillatory activity of the derivatives of the invention has been verified on the mouse using the Lawson test, in accordance with the method described by J. W. Lawson, J. Pharmacol. Exp. Therp. 160, 22-31 (1968), and C. Narcisse et al., Ann. Pharm. Fr. 37, 325-330 (1979).
# The mice (20 per dose) received an intraperitoneal injection of the derivative 10 minutes before being placed in a chloroform saturated atmosphere. As soon as respiratory arrest occurred, the thorax was opened (5 to 10 seconds) and the state of the heart was checked: presence or absence of ventricular fibrillation. The efficacy dose 50 (ED 50) of the derivative being studied is the dose which protects half the mice against anoxic ventricular fibrillation.
# [7] = ip, intraperitoneal (I.P.), read-out: LD 50 I.P.
# [8] = oral (P.O.), 5 males and 5 females per dose, read-out: LD 50 P.O.
# [9] = anesthetized dog, i.v., cumulative dose
# [10] = read-out: Prolongation of time of appearance of ventricular extrasystoles (ESV)
# [11] = read-out: Prolongation of time of appearance of ventricular fibrillation (FV)
# [12] = read-out: Prolongation of time of appearance of ventricular tachycardium (TV)
smiles,measurement,setting,value
"CN(C)CCCOc1cc(-c2ccc(Cl)cc2)n[nH]1 [Example 1, 3-p-Chlorophenyl-5-dimethylaminopropoxy-pyrazole]",LD50,[1]; [7],250 to 500 mg/kg
same,LD50,[1]; [8],1000 mg/kg
same,inhibition at 10 µg/mL,[2],30%
"Cc1c(-c2ccccc2)n[nH]c1OCCN1CCCC1 [Example 2, 3-Phenyl-4-methyl-5-pyrrolidinoethoxy-pyrazole]",LD50,[1]; [8],500 mg/kg
same,"(dp/dt)l/p, percentage of variation","[3]; i.v., dose 0.5 mg/kg",0%
same,"Cardiac flow, percentage of variation","[3]; i.v., dose 0.5 mg/kg",0%
same,"Cardiac frequency, percentage of variation","[3]; i.v., dose 0.5 mg/kg",0%
same,"Contraction force of the myocardium, percentage of variation","[3]; i.v., dose 0.5 mg/kg",0%
same,"Systolic arterial pressure, percentage of variation","[3]; i.v., dose 0.5 mg/kg",+4%
same,"Systolic volume, percentage of variation","[3]; i.v., dose 0.5 mg/kg",0%
same,"(dp/dt)l/p, percentage of variation","[3]; i.v., dose +1 mg/kg",-7%
same,"Cardiac flow, percentage of variation","[3]; i.v., dose +1 mg/kg",-5%
same,"Cardiac frequency, percentage of variation","[3]; i.v., dose +1 mg/kg",-8%
same,"Contraction force of the myocardium, percentage of variation","[3]; i.v., dose +1 mg/kg",0%
same,"Systolic arterial pressure, percentage of variation","[3]; i.v., dose +1 mg/kg",0%
same,"Systolic volume, percentage of variation","[3]; i.v., dose +1 mg/kg",+3%
same,"(dp/dt)l/p, percentage of variation","[3]; i.v., dose +3 mg/kg",-30%
same,"Cardiac flow, percentage of variation","[3]; i.v., dose +3 mg/kg",-5%
same,"Cardiac frequency, percentage of variation","[3]; i.v., dose +3 mg/kg",-8%
same,"Contraction force of the myocardium, percentage of variation","[3]; i.v., dose +3 mg/kg",-20%
same,"Systolic arterial pressure, percentage of variation","[3]; i.v., dose +3 mg/kg",0%
same,"Systolic volume, percentage of variation","[3]; i.v., dose +3 mg/kg",+3%
same,"(dp/dt)l/p, percentage of variation","[3]; i.v., dose +5 mg/kg",-30%
same,"Cardiac flow, percentage of variation","[3]; i.v., dose +5 mg/kg",-20%
same,"Cardiac frequency, percentage of variation","[3]; i.v., dose +5 mg/kg",-8%
same,"Contraction force of the myocardium, percentage of variation","[3]; i.v., dose +5 mg/kg",-20%
same,"Systolic arterial pressure, percentage of variation","[3]; i.v., dose +5 mg/kg",-8%
same,"Systolic volume, percentage of variation","[3]; i.v., dose +5 mg/kg",-12%
same,"(dp/dt)l/p, percentage of variation","[3]; i.v., first dose of +10 mg/kg",-38%
same,"Cardiac flow, percentage of variation","[3]; i.v., first dose of +10 mg/kg",-37%
same,"Cardiac frequency, percentage of variation","[3]; i.v., first dose of +10 mg/kg",-8%
same,"Contraction force of the myocardium, percentage of variation","[3]; i.v., first dose of +10 mg/kg",-10%
same,"Systolic arterial pressure, percentage of variation","[3]; i.v., first dose of +10 mg/kg",-12%
same,"Systolic volume, percentage of variation","[3]; i.v., first dose of +10 mg/kg",-31%
same,"(dp/dt)l/p, percentage of variation","[3]; i.v., second dose of +10 mg/kg",-46%
same,"Cardiac flow, percentage of variation","[3]; i.v., second dose of +10 mg/kg",-45%
same,"Cardiac frequency, percentage of variation","[3]; i.v., second dose of +10 mg/kg",-8%
same,"Contraction force of the myocardium, percentage of variation","[3]; i.v., second dose of +10 mg/kg",-20%
same,"Systolic arterial pressure, percentage of variation","[3]; i.v., second dose of +10 mg/kg",-20%
same,"Systolic volume, percentage of variation","[3]; i.v., second dose of +10 mg/kg",-40%
same,maximum decrease of force of ventricular myocardiac contractions,[3]; after injection of 4.5 mg/kg to 29 mg/kg,-20%
same,Cardiac frequency (result in words),"[3]; anesthetized dog, i.v.",drops moderately
same,Systolic arterial pressure (result in words),"[3]; anesthetized dog, i.v.",drops moderately
same,force of ventricular myocardiac contractions (result in words),"[3]; anesthetized dog, i.v.",decreases
same,cumulative dose after which the decrease of systolic arterial pressure appears,[3]; [9],> 4.5 mg/kg
same,cumulative dose at which a 20% drop of cardiac flow is reached,[3]; [9],greater than 9 mg/kg
same,inhibition at 10 µg/mL,[2],56%
same,change in vivo at 10 mg/kg,[4]; [10],32%
same,change in vivo at 10 mg/kg,[4]; [11],44%
same,change in vivo at 10 mg/kg,[4]; [12],30%
same,local anesthesia,[5],100%
"Clc1ccc(-c2cc(OCCCN3CCCCC3)[nH]n2)cc1 [Example 3, 3-p-Chlorphenyl-5-piperidinopropoxy-pyrazole]",LD50,[1]; [8],700 mg/kg
same,inhibition at 10 µg/mL,[2],53%
same,change in vivo at 10 mg/kg,[4]; [10],6%
same,change in vivo at 10 mg/kg,[4]; [11],46%
same,change in vivo at 10 mg/kg,[4]; [12],28%
same,ED50,[6],35 mg/kg
same,local anesthesia,[5],100%
"c1ccc(-c2cc(OCCN3CCOCC3)[nH]n2)cc1 [Example 5, 3-Phenyl-5-morpholinoethoxy-pyrazole]",LD50,[1]; [8],1000 mg/kg
same,inhibition at 10 µg/mL,[2],12%
same,ED50,[6],79 mg/kg
Clc1ccc(-c2cc(OCCN3CCCCC3)[nH]n2)cc1 [Example 6],LD50,[1]; [8],500 mg/kg
same,inhibition at 10 µg/mL,[2],46%
same,change in vivo at 3 mg/kg,[4]; [10],13%
same,change in vivo at 3 mg/kg,[4]; [11],18%
same,change in vivo at 3 mg/kg,[4]; [12],21%
same,local anesthesia,[5],100%
Clc1ccc(-c2cc(OCCN3CCCC3)[nH]n2)cc1 [Example 7],LD50,[1]; [7],280 mg/kg
same,LD50,[1]; [8],1000 mg/kg
same,inhibition at 10 µg/mL,[2],45%
same,change in vivo at 10 mg/kg,[4]; [10],11%
same,change in vivo at 10 mg/kg,[4]; [11],32%
same,change in vivo at 10 mg/kg,[4]; [12],45%
same,ED50,[6],66 mg/kg
same,local anesthesia,[5],100%
CN(C)CCCOc1cc(-c2ccccc2)[nH]n1 [Example 8],LD50,[1]; [8],1000 mg/kg
Cc1c(-c2ccccc2)n[nH]c1OCCN1CCCCC1 [Example 11],LD50,[1]; [7],184 mg/kg
same,LD50,[1]; [8],250 to 500 mg/kg
same,inhibition at 10 µg/mL,[2],52%
same,change in vivo at 10 mg/kg,[4]; [10],10%
same,change in vivo at 10 mg/kg,[4]; [11],18%
same,change in vivo at 10 mg/kg,[4]; [12],11%
same,ED50,[6],42.5 mg/kg
c1ccc(-c2cc(OCCN3CCCC3)[nH]n2)cc1 [Example 12],LD50,[1]; [8],500 to 1000 mg/kg
same,inhibition at 10 µg/mL,[2],35%
c1ccc(-c2cc(OCCCN3CCCCC3)[nH]n2)cc1 [Example 13],LD50,[1]; [8],125 to 250 mg/kg
same,inhibition at 10 µg/mL,[2],44%
Cc1c(-c2ccccc2)n[nH]c1OCCCN1CCCCC1 [Example 14],LD50,[1]; [8],250 mg/kg
same,Cardiac frequency (result in words),"[3]; anesthetized dog, i.v.",drops moderately
same,Systolic arterial pressure (result in words),"[3]; anesthetized dog, i.v.",drops moderately
same,force of ventricular myocardiac contractions (result in words),"[3]; anesthetized dog, i.v.",does not vary significantly
same,inhibition at 10 µg/mL,[2],40%
same,ED50,[6],62 mg/kg
Cc1c(-c2ccccc2)n[nH]c1OCCCN(C)C [Example 15],LD50,[1]; [8],500 to 1000 mg/kg
same,inhibition at 10 µg/mL,[2],40%
Cc1c(-c2ccc(Cl)cc2)n[nH]c1OCCN1CCOCC1 [Example 16],LD50,[1]; [7],125 to 250 mg/kg
same,LD50,[1]; [8],500 to 1000 mg/kg
same,inhibition at 10 µg/mL,[2],28%
Cc1c(-c2ccc(Cl)cc2)n[nH]c1OCCCN(C)C [Example 17],LD50,[1]; [7],250 to 500 mg/kg
same,LD50,[1]; [8],500 to 1000 mg/kg
same,inhibition at 10 µg/mL,[2],32%
Cc1c(-c2ccc(Cl)cc2)n[nH]c1OCCN1CCCC1 [Example 18],LD50,[1]; [8],750 mg/kg
same,inhibition at 10 µg/mL,[2],45%
same,change in vivo at 10 mg/kg,[4]; [10],2%
same,change in vivo at 10 mg/kg,[4]; [11],0%
same,change in vivo at 10 mg/kg,[4]; [12],6%
Cc1c(-c2ccc(Cl)cc2)n[nH]c1OCCCN1CCCCC1 [Example 19],LD50,[1]; [7],62 to 125 mg/kg
same,LD50,[1]; [8],250 mg/kg
same,Cardiac frequency (result in words),"[3]; anesthetized dog, i.v.",does not change
same,Systolic arterial pressure (result in words),"[3]; anesthetized dog, i.v.",drops moderately
same,force of ventricular myocardiac contractions (result in words),"[3]; anesthetized dog, i.v.",decreases
same,cumulative dose at which a 20% drop of cardiac flow is reached,[3]; [9],greater than 4 mg/kg
same,inhibition at 10 µg/mL,[2],52%
same,change in vivo at 10 mg/kg,[4]; [10],15%
same,change in vivo at 10 mg/kg,[4]; [11],35%
same,change in vivo at 10 mg/kg,[4]; [12],15%
same,ED50,[6],21.5 mg/kg
